We go through 23 compounds from patent publication US9353096B2, “Substituted phenylcarbamate compounds” (Hoffmann-La Roche Inc., priority 2012, dated 2016).

Where a name gives a salt, the structure may show the parent alone.

The test has as its target hTRPA1 (Homo sapiens, UniProt O75762). Description: Dose response calcium flux (FLIPR) assay, ChanTest hTRPA1-CHO stably transfected cell line, cinnamaldehyde agonist. In kind it is cell-based. The conditions noted are these: CHO-K1 Tet-On hTRPA1 cells, 100 uM cinnamaldehyde agonist, 30 min preincubation. How it is done: Dose Response Assay:ChanTest hTRPA1-CHO Stably Transfected Cell Line
CHO-K1 Tet-On_HOMSA_TRPA1_Clone_20
Growth Media for CHO-K1 Tet-On_HOMSA_TRPA1_Clone_20 • Ham's F-12 with 10% tetracycline-free FBS • 1× penicillin-streptomycin • 1× glutamax • 0.01 mg/ml Blasticidin • 0.40 mg/ml Zeocin • The cell line doubling rate was ˜15 h. […] Experiments were run at 24 h post induction.
Plating Conditions CHOK1/TRPA1 Cells: • Harvested cells with 0.025% trypsin/EDTA. • Resuspended cells in growth media without selection antibiotics. • Measured cell density and diluted to 2.4×10^5 cells/ml in media containing 1 ug/ml Doxycycline Plate 25 ul/well into 384 well black/clear tissue culture-treated plates. • Incubated overnight at 37° C.
Replacement Buffer: Hank's Balanced Salt Solution, 20 mM HEPES along with 0.005% BSA and 2× Probenecid
Dye Loading Buffer: Cal-3 NW Calcium dye was prepared by dissolving the contents of one vial with […] Hank's Balanced Salt Solution containing 20 mM HEPES.
AP-18, stock 10 mM, prepare 3.5× compound dilution in a Compound Buffer (HBSS/20 mM HEPES/0.005% BSA)—final concentration 10 uM.
Preparation of Cinnamaldehyde (Agonist Addition): • FW=132.16 • Specific gravity=1.046 gm/cc • 1.32 gm/1.046 gm/cc=1.26 ml of stock • Add 1.74 ml DMSO=3.3 M stock • Working solution 4.5× (final 100 uM in Compound Buffer: HBSS/20 mM HEPES/0.005% BSA)
Compounds dilutions were prepared from 5 or 10 mM stock (100% DMSO): • Adjustments of volumes and concentrations were made at time of titration to reflect desired final assay concentrations. • Compounds were tested at either 20 μM three folds dilution 11 steps out or 30 μM two folds dilution 11 steps out. • 3 μl of diluted compound were transferred into Weidmann 384-well plate in duplicates side-by-side. • Compound plates were resuspended with 100 ul of HBSS/20 mM HEPES/0.005% BSA buffer (Compound Buffer): • column 1A-H: buffer/DMSO (bk) • column 2A-H: AP-18 (control antagonist for CHOK1 TRPA1 cells) • column 1I-P: ATP (control for CHOK1 teton cells) • column 2I-P: 2APB (control antagonist for CHOK1/TRPM8 cells).
Growth media was removed from the cell plates (20 ul) and 20 μl of the Replacement Buffer was added followed by addition of 25 μl of diluted dye. All three steps were performed using a Plate Washer BioTek 407. The plates were then incubated for 30′ at RT.
After incubation, both the cell and compound plates were brought to the FLIPR and 20 μl of the diluted compounds/antagonist/bk were transferred to the cell plates by the FLIPR. Plates were then incubated for 30′ at room temperature. After 30′ incubation, plates were returned to the FLIPR and 20 μl of 4.5× Cinnamaldehyde was added to the cell plates. During the compound addition as well as agonist addition, fluorescence readings were taken simultaneously from all 384 wells of the cell plate every 1.5 seconds. Five readings were taken to establish a stable baseline, then 20 μl of sample was rapidly (30 ul/sec) and simultaneously added to each well of the cell plate. The fluorescence was continuously monitored before, during and after sample/agonist addition for a total elapsed time of 100 seconds (compound addition) and 120 seconds (agonist addition). Responses (increase in peak fluorescence) in each well following agonist addition was determined. The initial fluorescence reading from each well, prior to ligand stimulation, was used a zero baseline value for the data from that well.
On the technique in general: A change in cytosolic calcium serves as a functional read-out for many receptors and channels.

hTRPA1, sequence (O75762 whole entry): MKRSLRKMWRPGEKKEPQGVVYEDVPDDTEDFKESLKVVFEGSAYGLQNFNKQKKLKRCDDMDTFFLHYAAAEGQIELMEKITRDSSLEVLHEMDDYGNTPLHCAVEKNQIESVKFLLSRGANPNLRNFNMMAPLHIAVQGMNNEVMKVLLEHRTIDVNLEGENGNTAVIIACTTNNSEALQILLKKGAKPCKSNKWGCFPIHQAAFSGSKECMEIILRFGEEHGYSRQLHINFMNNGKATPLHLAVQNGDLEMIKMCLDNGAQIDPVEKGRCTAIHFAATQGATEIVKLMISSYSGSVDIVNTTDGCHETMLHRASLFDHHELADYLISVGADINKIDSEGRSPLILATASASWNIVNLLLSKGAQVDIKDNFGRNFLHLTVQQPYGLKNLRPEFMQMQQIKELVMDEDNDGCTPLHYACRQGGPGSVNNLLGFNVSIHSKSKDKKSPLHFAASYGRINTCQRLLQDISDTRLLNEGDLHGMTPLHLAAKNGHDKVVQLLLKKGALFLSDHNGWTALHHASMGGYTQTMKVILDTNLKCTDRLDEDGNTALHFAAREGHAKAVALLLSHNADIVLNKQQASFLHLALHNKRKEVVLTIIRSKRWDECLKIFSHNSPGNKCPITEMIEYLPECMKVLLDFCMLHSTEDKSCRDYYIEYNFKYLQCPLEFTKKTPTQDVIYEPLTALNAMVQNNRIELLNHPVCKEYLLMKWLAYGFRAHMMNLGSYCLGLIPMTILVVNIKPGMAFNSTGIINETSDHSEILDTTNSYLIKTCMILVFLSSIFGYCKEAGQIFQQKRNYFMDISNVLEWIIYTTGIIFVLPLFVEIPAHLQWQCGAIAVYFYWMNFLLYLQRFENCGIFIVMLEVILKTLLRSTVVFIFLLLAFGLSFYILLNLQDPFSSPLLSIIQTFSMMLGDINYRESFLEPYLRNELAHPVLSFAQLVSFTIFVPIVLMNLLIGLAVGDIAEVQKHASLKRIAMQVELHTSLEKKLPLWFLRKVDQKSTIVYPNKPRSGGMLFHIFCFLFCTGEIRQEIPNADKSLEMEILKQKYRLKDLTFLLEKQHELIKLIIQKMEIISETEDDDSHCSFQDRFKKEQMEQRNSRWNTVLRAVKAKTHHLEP

One may read the IC50 as the concentration that gives 50% inhibition. `O=C(Nc1ccc(Cl)c(F)c1)O[C@@H](CN1CCO[C@H](c2ccc(F)c(C(F)(F)F)c2)C1)C(F)(F)F` [Example 3, (4-Chloro-3-fluorophenyl)-carbamic acid (S)-2,2,2-trifluoro-1-[(R)-2-(4-fluoro-3-trifluoromethylphenyl)-morpholin-4-ylmethyl]-ethyl ester hydrochloride]: the IC50 was found to be 14.3 nM.
With `O=C(Nc1ccc(Cl)nc1)O[C@@H](CN1CCOC(c2cccc(C(F)(F)F)c2)C1)C(F)(F)F` (stereo partly drawn) [Example 38, (6-Chloropyridin-3-yl)carbamic acid (S)-2,2,2-trifluoro-1-[2-3-trifluoromethylphenyl]-morpholin-4-ylmethyl]-ethyl ester hydrochloride], the half-inhibitory concentration (IC50) is 78 nM.
For `O=C(Nc1ccc(Cl)cc1)O[C@@H](CN1CCS(=O)(=O)[C@H](c2cccc(C(F)(F)F)c2)C1)C(F)(F)F` [Example 18, (4-Chlorophenyl)-carbamic acid (S)-1-[(R)-1,1-dioxo-2-(3-trifluoromethylphenyl)-1λ^6-thiomorpholin-4-ylmethyl]-2,2,2-trifluoroethyl ester], the 50% inhibitory concentration (IC50) is 42.5 nM.
In the case of `O=C(Nc1ccc(Cl)c(F)c1)O[C@@H](CN1CCO[C@@H](c2ccc(C(F)(F)F)cc2)C1)C(F)(F)F` [Example 32, (4-Chloro-3-fluorophenyl)-carbamic acid (S)-2,2,2-trifluoro-1-[(S)-2-(4-trifluoromethylphenyl)-morpholin-4-ylmethyl]-ethyl ester hydrochloride], the IC50 was 451 nM.
Then `O=C(Nc1ccc(Cl)c(F)c1)O[C@@H](CN1CCO[C@H](c2ccc(F)c(F)c2)C1)C(F)(F)F` [Example 34, (4-Chloro-3-fluorophenyl)-carbamic acid (S)-1-[(R)-2-(3,4-difluorophenyl)-morpholin-4-ylmethyl]-2,2,2-trifluoroethyl ester hydrochloride], with 37.6 nM.
Then `O=C(Nc1ccc(Cl)cc1)O[C@@H](CN1CCO[C@H](c2ccc(F)c(C(F)(F)F)c2)C1)C(F)(F)F` [Example 1, (4-Chlorophenyl)-carbamic acid (S)-2,2,2-trifluoro-1-[(R)-2-(4-fluoro-3-trifluoromethylphenyl)-morpholin-4-ylmethyl]-ethyl ester hydrochloride], with 4.91 nM; and `O=C(Nc1ccc(Cl)c(F)c1)O[C@@H](CN1CCO[C@@H](c2ccc(C(F)(F)F)nc2)C1)C(F)(F)F` (single isomer, unassigned) [Example 23, hydrochloride], with 781 nM; and `O=C(Nc1ccc(Cl)cc1)O[C@@H](CN1CCOC(c2ccc(F)c(C(F)(F)F)c2)C1)C(F)(F)F` (stereo partly drawn) [Example 2, (4-Chlorophenyl)-carbamic acid (S)-2,2,2-trifluoro-1-[2-(4-fluoro-3-trifluoromethylphenyl)-morpholin-4-ylmethyl]-ethyl ester hydrochloride], with 8.5 nM.
As for `O=C(C[C@@H](CN1CCO[C@H](c2cccc(C(F)(F)F)c2)C1)C(F)(F)F)Nc1ccc(Cl)c(F)c1` [Example 39, (S)—N-(4-chloro-3-fluorophenyl)-4,4,4-trifluoro-3-[(R)-2-(3-trifluoromethylphenyl)-morpholin-4-ylmethyl]-butyramide], the concentration for half-maximal inhibition (IC50) came out at 73.8 nM.
The value for `O=C(Nc1ccc(Cl)c(F)c1)O[C@@H](CN1CCO[C@H](c2ccc(F)cc2)C1)C(F)(F)F` [Example 36, (4-Chloro-3-fluorophenyl)carbamic acid (S)-1-[(R)-2-(4-fluorophenyl)-morpholin-4-ylmethyl]-2,2,2-trifluoroethyl ester hydrochloride] was 92.2 nM; that for `O=C(Nc1ccc(Cl)cc1)O[C@@H](CN1CCOC(c2ccc(F)cc2)C1)C(F)(F)F` (stereo partly drawn) [Example 42, (4-Chlorophenyl)carbamic acid (S)-2,2,2-trifluoro-1-[2-(4-fluorophenyl)-morpholin-4-ylmethyl]-ethyl ester hydrochloride] was 83.4 nM; that for `O=C(Nc1ccc(Cl)cc1)O[C@@H](CN1CCO[C@@H](c2ccc(C(F)(F)F)cc2)C1)C(F)(F)F` (single isomer, unassigned) [Example 30, hydrochloride] was 198 nM.
Turning to `COc1cccc(C[C@@H]2CN(C[C@H](OC(=O)Nc3ccc(Cl)cc3)C(F)(F)F)CCO2)n1` [Example 51, (4-Chlorophenyl)-carbamic acid (S)-2,2,2-trifluoro-1-[(R)-2-(6-methoxy-pyridin-2-ylmethyl)-morpholin-4-ylmethyl]ethyl ester], the concentration for half-maximal inhibition (IC50) stood at 398 nM.
For the compound `O=C(Nc1ccc(Cl)c(F)c1)O[C@@H](CN1CCO[C@@H](c2ccc(F)c(F)c2)C1)C(F)(F)F` (single isomer, unassigned) [Example 35, hydrochloride], the IC50 is 196 nM.
In the case of `O=C(Nc1ccc(Cl)cc1)O[C@@H](CN1CCOC(c2cccc(F)c2)C1)C(F)(F)F` (stereo partly drawn) [Example 47, (4-Chlorophenyl)-carbamic acid (S)-2,2,2-trifluoro-1-[2-(3-fluorophenyl)-morpholin-4-ylmethyl]-ethyl ester hydrochloride], the concentration for half-maximal inhibition (IC50) was 130 nM.
Then `O=C(Nc1ccc(Cl)cc1)O[C@@H](CN1CCO[C@@H](Cc2ccccc2)C1)C(F)(F)F` (single isomer, unassigned) [Example 10, hydrochloride], with 3580 nM.
As to `CC(=O)N1CCN(C[C@H](OC(=O)Nc2ccc(Cl)cc2)C(F)(F)F)CC1c1ccccc1` (stereo partly drawn) [Example 28, (4-Chlorophenyl)-carbamic acid (S)-1-(4-acetyl-3-phenylpiperazin-1-ylmethyl)-2,2,2-trifluoroethyl ester hydrochloride], the half-inhibitory concentration (IC50) is 4530 nM.
The value for `O=C(Nc1ccc(Cl)c(F)c1)O[C@@H](CN1CCO[C@H](c2cccc(Cl)c2)C1)C(F)(F)F` [Example 7, (4-Chloro-3-fluorophenyl)-carbamic acid (S)-1-[(R)-2-(3-chlorophenyl)-morpholin-4-ylmethyl]-2,2,2-trifluoroethyl ester hydrochloride] was 47 nM; that for `O=C(Nc1ccc(Cl)c(F)c1)O[C@@H](CN1CCO[C@H](c2ccnc(C(F)(F)F)n2)C1)C(F)(F)F` [Example 24, (4-Chloro-3-fluorophenyl)-carbamic acid (S)-2,2,2-trifluoro-1-[(S)-2-(2-trifluoromethylpyrimidin-4-yl)-morpholin-4-ylmethyl]-ethyl ester hydrochloride] was 71.1 nM; that for `COc1cccc([C@@H]2CN(C[C@H](OC(=O)Nc3ccc(Cl)cc3)C(F)(F)F)CCO2)c1` [Example 14, (4-Chlorophenyl)-carbamic acid (S)-2,2,2-trifluoro-1-[(R)-2-(3-methoxyphenyl)-morpholin-4-ylmethyl]-ethyl ester] was 36.1 nM.
Then `O=C(Nc1ccc(Cl)c(F)c1)O[C@@H](CN1CCO[C@H](c2ccc(F)c(Cl)c2)C1)C(F)(F)F` [Example 5, (4-Chloro-3-fluorophenyl)-carbamic acid (S)-1-[(R)-2-(3-chloro-4-fluorophenyl)-morpholin-4-ylmethyl]-2,2,2-trifluoroethyl ester hydrochloride], with 30.7 nM; and `O=C(Nc1ccc(Cl)c(F)c1)O[C@@H](CN1CCO[C@H](c2ccc(Cl)c(F)c2)C1)C(F)(F)F` [Example 4, (4-Chloro-3-fluorophenyl)-carbamic acid (S)-1-[(R)-2-(4-chloro-3-fluorophenyl)-morpholin-4-ylmethyl]-2,2,2-trifluoroethyl ester hydrochloride], with 42.4 nM; and `O=C(Nc1ccc(Cl)cc1)O[C@@H](CN1CCS(=O)(=O)CC1)C(F)(F)F` [Example 48, (4-Chlorophenyl)-carbamic acid (S)-1-(1,1-dioxo-1λ^6-thiomorpholin-4-ylmethyl)-2,2,2-trifluoroethyl ester hydrochloride], with 3560 nM.
